In article PMC10518255, “A first-in-class pan-lysyl oxidase inhibitor impairs stromal remodeling and enhances gemcitabine response and survival in pancreatic cancer” (Nature Cancer, 2023):
Several values for one entry are separate records, joined by “and”; a condition that tells them apart may be missing. Identical values can stand only once.

Tests used:
[1] = biological target: all lysyl oxidase family members; assay: Lysyl oxidase enzymatic activity, fluorescence-based assay, IC50 range over the family; type: biochemical, human; conditions: range over the five family members; read-out: IC50 values against all lysyl oxidase family members
Description: In characterizing PXS-5505, the half-maximum inhibitory concentration (IC50) values for each of the lysyl oxidase family members were determined by measuring enzymatic activity using a fluorescence-based assay.

[2] = biological target: T1, bovine aorta extracted LOX (Bos taurus, UniProt P33072); assay: Substrate competition assay versus putrescine dihydrochloride, amplex red (Extended Data Fig. 3b); type: biochemical
T1 construct: performed in an amplex red assay using bovine aorta extracted LOX; from tissue; host or cells: bovine aorta
Description: Similar to other fluoroallylamine-based amine oxidase inhibitors, the mode of inhibition is assumed to be a two-step mechanism (Fig. 2c), with PXS-5505 reacting with the unique LTQ cofactor found within the active site. The fluoroallylamine facilitates the formation of a covalent, irreversible bond. […] Furthermore, in jump dilution experiments, there is no significant recovery of activity following rapid dilution (LOXL1 (5 ± 5% recovery, n = 4), LOXL2 (7 ± 1.2% recovery, n = 3) and LOXL3 (11 ± 2% recovery, n = 3)).
(§1) Data presented as mean values +/− SD. f. […] Data presented as mean values +/− SD. […] Data presented as mean values +/− SD. […] Data presented as mean values +/− SD. Ordinary one-way ANOVA for multiple comparison test performed. Source data

[3] = tested on: lysyl oxidase family activity in conditioned medium from KPC CAFs; assay: Amplex red enzymatic activity assay on cell-derived conditioned medium (Extended Data Fig. 3g); type: biochemical, mouse; parameters: Lysyl oxidase family activity in conditioned media: unit not given here; conditions: for Lysyl oxidase family activity in conditioned media: KPC CAF CM, replicates
Description: (§2) Cell-derived conditioned medium was prepared from KPC CAFs and CCs grown in phenol red-free DMEM with 0.1% FBS and 10 μM CuSO4 for 24 h. At collection, size filtration >10 kDa for 40× concentration and buffer exchange (1.2 M urea and 50 mM sodium borate buffer, pH 8.2) were performed and subsequently used for the Amplex red assay as previously described[59] using putrescine as a substrate. Three biological repeats were performed.
as §1

[4] = tested on: lysyl oxidase family activity in conditioned medium from KPC cancer cells; assay: as above; type: biochemical, mouse; parameters: Lysyl oxidase family activity in conditioned media: unit not given here; conditions: for Lysyl oxidase family activity in conditioned media: KPC cancer cells CM, replicates
Description: as §2, §1

MPO = assay: Immunohistochemistry of end-point KPC tumors: myeloperoxidase cell infiltration; type: in vivo, mouse; conditions: KPC tumours at endpoint; individual replicate values (Extended Data 6H)
Description: All tissues or matrices, including patient TMAs, were fixed in 10% buffered formalin and embedded in paraffin. The 4-μm sections of samples were deparaffinized with xylene and rehydrated in graded ethanol washes. For immunohistochemistry, Bond Dewax Solution (AR9222) was used. Antigen retrieval was performed using Bond RX H2(30) protocol: HIER 30 min ER1 (citrate pH 6) OR ER2 (EDTA pH 9) at 100 °C. Slides were quenched in BOND Polymer Refine Detection (Leica Biosystems DS9800). […] Slides were digitized on an Aperio slide scanner and representative areas per tumor acquired and analyzed by researchers blinded to the conditions of the experiment.
Extended Data Fig. 6 PXS-5505 in combination with gemcitabine in a KPC model. a. Quantification of proliferating cells (Ki67 positive nuclear staining) in KPC tumors at end point, treated as indicated. 5 fields of view (500 μm × 500 μm) per mouse and 10 mice per cohort were scored. […] Quantification of percent coverage of αSMA positive staining in KPC tumors at end point, treated as indicated. 3 fields of view (1000 μm × 1000 μm) per mouse and 10 mice per cohort were scored. […] Quantification of percent coverage of PDGFR-ß positive staining in KPC tumors at end point, treated as indicated. 3 fields of view (1000 μm × 1000 μm) per mouse and 10 mice per cohort were scored. […] 3 fields of view (500 μm × 500 μm) per mouse and 10 mice per cohort were scored. […]

T1 sequence (P33072 170-418): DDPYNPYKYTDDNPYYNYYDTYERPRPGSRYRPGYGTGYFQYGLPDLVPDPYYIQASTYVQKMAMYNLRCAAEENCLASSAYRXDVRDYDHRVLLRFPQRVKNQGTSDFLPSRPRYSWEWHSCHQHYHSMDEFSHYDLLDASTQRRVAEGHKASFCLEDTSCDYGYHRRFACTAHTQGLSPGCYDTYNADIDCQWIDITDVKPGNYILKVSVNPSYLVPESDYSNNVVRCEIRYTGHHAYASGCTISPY

Cl.Cl.NC/C=C(\F)CS(=O)(=O)c1cccc2cccnc12.O [PXS-5505, (Z)-3-fluoro-4-(quinolin-8-ylsulfonyl)but-2-en-1-amine dihydrochloride monohydrate]
IC50 [1]: 0.2 to 5 µM
substrate competition [2]: substrate competition
Lysyl oxidase family activity in conditioned media ([3]; 1.5 nM PXS): 95.9609 and 94.079 and 81.6749
Lysyl oxidase family activity in conditioned media ([3]; 3 nM PXS): 109.447 and 108.981 and 81.5719
Lysyl oxidase family activity in conditioned media ([3]; 15 nM PXS): 100.129 and 99.9799 and 74.1019
Lysyl oxidase family activity in conditioned media ([3]; 30 nM PXS): 107.999 and 96.3316 and 79.5133
Lysyl oxidase family activity in conditioned media ([3]; 150 nM PXS): 79.0426 and 71.3415 and 64.7518
Lysyl oxidase family activity in conditioned media ([3]; 300 nM PXS): 88.3802 and 67.0866 and 51.1694
Lysyl oxidase family activity in conditioned media ([3]; 1.5 uM PXS): 45.307 and 27.142 and 15.754
Lysyl oxidase family activity in conditioned media ([3]; 3 uM PXS): 31.4691 and 22.608 and 3.789
Lysyl oxidase family activity in conditioned media ([3]; 15 uM PXS): -3.917 and 9.401 and -5.483
Lysyl oxidase family activity in conditioned media ([3]; 30 uM PXS): -4.091 and 9.102 and -4.018
inhibition of lysyl oxidase family activity in conditioned medium ([3]; KPC CAFs): inhibition of lysyl oxidase family activity
inhibition of lysyl oxidase family activity in conditioned medium ([4]; KPC CCs): inhibition of lysyl oxidase family activity
Lysyl oxidase family activity in conditioned media ([4]; 1.5 nM PXS): 52.7404 and 147.39 and 87.9635
Lysyl oxidase family activity in conditioned media ([4]; 3 nM PXS): 57.9047 and 143.925 and 88.9618
Lysyl oxidase family activity in conditioned media ([4]; 15 nM PXS): 58.7665 and 150.554 and 90.679
Lysyl oxidase family activity in conditioned media ([4]; 30 nM PXS): 57.8418 and 141.264 and 86.9464
Lysyl oxidase family activity in conditioned media ([4]; 150 nM PXS): 55.9673 and 128.167 and 75.6773
Lysyl oxidase family activity in conditioned media ([4]; 300 nM PXS): 56.4831 and 97.2065 and 57.86
Lysyl oxidase family activity in conditioned media ([4]; 1.5 uM PXS): 35.0772 and 43.4748 and 18.796
Lysyl oxidase family activity in conditioned media ([4]; 3 uM PXS): 22.4023 and 21.6286 and 3.933
Lysyl oxidase family activity in conditioned media ([4]; 15 uM PXS): -2.759 and 11.8534 and -9.095
Lysyl oxidase family activity in conditioned media ([4]; 30 uM PXS): -2.098 and 9.262 and -6.1538
number of myeloperoxidase (MPO+) cell infiltration (MPO): 11
